Patent publication US5665745A, “Heterocyclic compounds and their preparation and use” (Eli Lilly and Company, priority 1995, dated 1997)
Like-named read-outs stand apart in the source and are kept apart here.

Tests used:
M2 -sites = settings: background statement; cited from earlier work
M1 -sites = settings: background statement; cited from earlier work
[1] = biological target: muscarinic receptor in the CNS; settings: cited from earlier work
[2] = biological target: muscarinic acetylcholine receptors; assay: inhibition of specific binding of ^3 H-Oxotremorine-M (^3 H-Oxo); set-up: species or system rat (male Wistar; settings: ^3 H-Oxotremorine 1.0 nM, rat cortex, 30 min. at 25° C.
In short: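 Rat cortex membranes (male Wistar) in 20 mM Hepes pH 7.4 incubated with 1.0 nM ^3H-Oxotremorine-M (final) and test compound for 30 min at 25 °C; arecoline defines non-specific binding. Bound radioactivity by filtration and scintillation counting; IC50 (nM) from a single concentration via Co/Cx mass-action formula, reflecting high- and medium-affinity sites.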

[3] = biological target: T1, muscarinic receptors (M1 -site, pirenzepine sensitive site) (Rattus norvegicus, UniProt P08482); assay: inhibition of ^3 HPRZ (pirenzepine, [N-methyl-^3 H]) binding to rat cerebral cortex membranes; set-up: species or system rat (male Wistar
T1 construct: from tissue; host or cells: cerebral cortex membranes of male Wistar rats
T1 sequence (P08482 1-460): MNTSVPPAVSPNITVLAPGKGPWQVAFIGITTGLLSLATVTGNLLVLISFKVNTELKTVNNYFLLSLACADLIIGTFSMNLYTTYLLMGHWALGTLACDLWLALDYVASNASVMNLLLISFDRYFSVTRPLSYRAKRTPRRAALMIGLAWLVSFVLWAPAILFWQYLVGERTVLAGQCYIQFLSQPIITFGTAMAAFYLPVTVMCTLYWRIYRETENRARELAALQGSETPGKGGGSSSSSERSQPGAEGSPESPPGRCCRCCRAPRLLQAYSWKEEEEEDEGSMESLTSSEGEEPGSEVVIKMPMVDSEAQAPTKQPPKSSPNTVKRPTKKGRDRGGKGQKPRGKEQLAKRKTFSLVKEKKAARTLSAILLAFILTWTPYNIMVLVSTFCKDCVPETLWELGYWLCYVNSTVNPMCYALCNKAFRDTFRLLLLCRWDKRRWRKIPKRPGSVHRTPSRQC
In short: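 Male Wistar rat cortex membranes in 20 mM Hepes pH 7.4 were incubated with 1.0 nM (final) [3H]pirenzepine for 60 min at 20° C; nonspecific binding was defined with 1 μg/mL atropine. Filtration and scintillation counting were used, and IC50 was calculated from a single concentration assuming mass-action kinetics.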

[4] = ^3 HPRZ 1.0 nM, rat cortex, 60 min. at 20° C., read-out: ^3 HPRZ IC50 (head from b208 on: Pir IC-50)

IC50 [3, 4]	SMILES	IC50 [2]	IC50 [3]	further results
	CN1CCN(CC(=O)N2c3ccccc3C(=O)Nc3cccnc32)CC1 [pirenzepine]			interaction with M2 -sites (M2 -sites): also interact with M2 -sites; selectivity for muscarinic receptor subtype (M1 -sites): selective for M1 -sites
	C[N+](C)(C)CC#CCN1CCCC1=O [^3 H-Oxo]			Kd ([1]; first of three sites labeled (high affinity)): 1.8 nM; Kd ([1]; second of three sites labeled (medium affinity)): 20 nM; Kd ([1]; third of three sites labeled, read-out: affinity): 3000 nM
3 nM	FCCCOc1nsnc1O[C@@H]1CN2CCC[C@H]1C2 (relative stereo) [Compound 205, (±)-endo-3-(3-Fluoropropoxy)-4-(1-azabicyclo[3.2.1]octyl-6-oxy)-1,2,5-thiadiazole]	2.5 nM		
	c1csc(CCCSc2nsnc2OC2CN3CCC2CC3)c1 (racemic) [Compound 21, (±)-3-(3-(2-Thienyl)propylthio)-4-(1-azabicyclo[2.2.2]-octyl-3-oxy-1,2,5-thiadiazole]	4.4 nM	4 nM	
	c1csc(SCCSc2nsnc2OC2CN3CCC2CC3)c1 (racemic) [Compound 19, (±)-3-(2-(2-Thienylthio)ethylthio)-4-(1-azabicyclo-[2.2.2]octyl-3-oxy)-1,2,5-thiadiazole]	0.36 nM	7.5 nM	
	CCCCSc1nsnc1OCC1CN2CCC1CC2 (racemic) [Compound 22, (±)-3-Butylthio-4-((1-azabicyclo[2.2.2]octan-3-yl)-methoxy)-1,2,5-thiadiazole]	23 nM	7.4 nM	
	c1ccc(SCCOc2nsnc2OC2CN3CCC2CC3)cc1 (racemic) [Compound 126, (±)-3-(2-[Phenylthio]ethoxy)-4-(1-azabicyclo[2.2.2]octyl-3-oxy)-1,2,5-thiadiazole]	19 nM	72 nM	
0.65 nM	CCCCSc1nsnc1O[C@H]1CN2CCC[C@@H]1C2 (relative stereo) [Compound 70, (±)3-(1-Butylthio)-4-[endo-6-(1-azabicyclo[3.2.1]octyloxy)]-1,2,5-thiadiazole]	1.3 nM		
74 nM	CCCCSc1nsnc1OC1CCCN2CCCC12 (mixture of isomers) [Compound 142, (±)-cis-3-Butylthio-4-(1-azabicyclo[4.3.0]nonyl-5-oxy)-1,2,5-thiadiazole]	38 nM		
	c1nsnc1OCCOc1nsnc1OC1CN2CCC1CC2 (racemic) [Compound 132, (±)-3-(2-[3-{1,2,5-Thiadiazoyloxy}]ethoxy)-4-(1-azabicyclo[2.2.2]octyl-3-oxy)-1,2,5-thiadiazole]	11 nM	66 nM	
	CCCCCCOc1nsnc1OC1CN2CCC1CC2 (racemic) [Compound 10, (±)-3-Hexyloxy-4-(1-azabicyclo[2.2,2]octyl-3-oxy)-1,2,5-thiadiazole]	6.1 nM	22 nM	
	CCCCOc1nsnc1OC1CN2CCC1CC2 (racemic) [Compound 8, (±)-3-Butyloxy-4-(1-azabicyclo[2.2.2]octyl-3-oxy)-1,2,5-thiadiazole]	3.1 nM	7.4 nM	
	N#Cc1ccc(CSc2nsnc2OC2CN3CCC2CC3)cc1 (racemic) [Compound 41, (±)-3-(4-Cyanobenzylthio)-4-(1-azabicyclo[2.2.2]octyl-3-oxy)-1,2,5-thiadiazole]	25 nM	19 nM	
	CCCCCSc1nsnc1O[C@H]1CN2CCC1CC2 [Compound 38, (R)-3-Pentylthio-4-(1-azabicyclo[2.2.2]octyl-3-oxy)-1,2,5-thiadiazole]	1 nM	1.9 nM	
112 nM	CCCCSc1nsnc1OC1CNC1 [Compound 51, 3-Butylthio-4-(3-azetidinyloxy)-1,2,5-thiadiazole]	25 nM		
2.2 nM	C/C=C\COc1nsnc1O[C@@H]1CN2CCC[C@H]1C2 (relative stereo) [Compound 181, (±)-endo-3-(cis-2-Butenyloxy)-4-(1-azabicyclo[3.2.1]octyl-6-oxy)-1,2,5-thiadiazole]	1.1 nM		
18 nM	CCCCCSc1nsnc1O[C@H]1CN2CCC[C@H]1C2 (relative stereo) [Compound 23, (±)-exo-3-Pentylthio-4-(1-azabicyclo[3.2.1]octyl-6-oxy)-1,2,5-thiadiazole]	55 nM		
	C(#Cc1ccccc1)COc1nsnc1OC1CN2CCC1CC2 (racemic) [Compound 107, (±)-3-(3-phenylpropynyloxy)-4-(1-azabicyclo[2.2.2]octyl-3-oxy)-1,2,5-thiadiazole]	9.6 nM	22.4 nM	
	O=C1SCCN1CCCSc1nsnc1OC1CN2CCC1CC2 (racemic) [Compound 61, (±)-3-(3-N-(2-Thiazolidonyl)propylthio)-4-(1-azabicyclo[2.2.2]octyl-3-oxy)1,2,5-thiadiazole]	1.1 nM	5.8 nM	
